Where two headings read alike, the source gives them in different places.
How the values were obtained:
[1] = target: HLA-B*3802 allele (Homo sapiens, UniProt P01889, A182T/A93T/A95T/C349S/D138N/D201E/D98Y/E176V/E187T/E204Q/G107R/K202T/L105A/N104T/Q94N/R106L/R155S/R180L/S101N/S121R/Y140F/Y91C); conditions: HLA-B*38:02
[2] = test system: combination of HLA-B*1301 allele and HLA-B*3901 allele; conditions: in vivo
[3] = test system: combination of HLA-B*1301 allele, HLA-B*1502 allele, HLA-B*3802 allele and HLA-B*3901 allele; conditions: in vivo
[4] = target: HLA-B*1301 allele (Homo sapiens, UniProt P01889, A65T/A93T/A95T/D138N/D201E/D98Y/E176V/E204Q/E69M/E70A/G107R/K202T/L105A/L119I/N104T/N87E/Q94N/R106L/R155S/R169L/R180L/S101N/S121R/S35A/S48T/T118I/V127L/V36M/Y140L/Y91S); conditions: HLA-B*13:01
[5] = target: HLA-B*3901 allele (Homo sapiens, UniProt P01889, A182T/A93T/A95T/C349S/D138N/D201E/E176V/E187T/E204Q/K202T/Q94N/R155S/R180L/S121R/Y140F/Y91C); conditions: HLA-B*39:01
[6] = target: HLA-B*1502 allele (Homo sapiens, UniProt P01889, A329T/A93T/A95T/C349S/D201E/D98Y/E187L/E204Q/E69M/E70A/H137Y/K202T/L119I/Q94N/R155S/R180L/S121R/S35A/S48A/T118I/V306I/V36M/Y140S/Y91S); conditions: HLA-B*15:02
[7] = patients taking sulfasalazine; clinical setting; cited from earlier work
[8] = test system: combination of HLA-B*1301 allele, HLA-B*3802 allele and HLA-B*3901 allele; conditions: in vivo
[9] = test system: combination of HLA-B*1502 allele and HLA-B*3802 allele; conditions: in vivo
[10] = Sulfasalazine-DRESS vs healthy control
[11] = Sulfasalazine-SCAR vs healthy control
[12] = Sulfasalazine-SJS/TEN patients, listed as sulfasalazine
[13] = Sulfasalazine-SJS/TEN vs healthy control
[14] = Sulfasalazine-SJS/TEN vs healthy control, listed as sulfasalazine
[15] = Sulfasalazine-DRESS patients, listed as sulfasalazine
[16] = Sulfasalazine-DRESS vs healthy control, listed as sulfasalazine

Compound: O=C(O)c1cc(/N=N/c2ccc(S(=O)(=O)Nc3ccccn3)cc2)ccc1O [Sulfasalazine]
- Sensitivity (%) ([1]; Sulfasalazine-DRESS): 0%
- Specificity (%) ([1]; Sulfasalazine-DRESS): 92.45%
- SCAR N (%) carrying the allele ([1]; Sulfasalazine-DRESS patients): 0/21
- Odds Ratio (95% CI) [1, 10]: 0.3
- Sensitivity (%) ([1]; Sulfasalazine-SCAR): 18.75%
- Specificity (%) ([1]; Sulfasalazine-SCAR): 92.45%
- SCAR N (%) carrying the allele ([1]; Sulfasalazine-SCAR patients): 6/32
- Odds Ratio (95% CI) [1, 11]: 2.8
- Sensitivity (%) ([1]; Sulfasalazine-SJS/TEN): 54.54%
- Specificity (%) ([1]; Sulfasalazine-SJS/TEN): 92.45%
- SCAR N (%) carrying the allele ([1]; Sulfasalazine-SJS/TEN patients): 6/11
- SCAR N (%) carrying the allele [1, 12]: 6 out of 11
- Odds Ratio (95% CI) [1, 13]: 14.7
- Odds Ratio (95% CI) [1, 14]: 14.7 (4.4-49.4)
- Specificity (%) [2]: 83.95%
- SCAR N (%) carrying the alleles [3]: 24/32
- Sensitivity (%) [3]: 75.00%
- Specificity (%) [3]: 60.35%
- Sensitivity (%) ([4]; Sulfasalazine-DRESS): 38.10%
- Specificity (%) ([4]; Sulfasalazine-DRESS): 87.89%
- SCAR N (%) carrying the allele ([4]; Sulfasalazine-DRESS patients): 8/21
- SCAR N (%) carrying the allele [4, 15]: 8 of 21
- Odds Ratio (95% CI) [4, 10]: 4.5
- Odds Ratio (95% CI) [4, 16]: 4.5 (1.8-11.0)
- Sensitivity (%) ([4]; Sulfasalazine-SCAR): 28.13%
- Specificity (%) ([4]; Sulfasalazine-SCAR): 87.89%
- SCAR N (%) carrying the allele ([4]; Sulfasalazine-SCAR patients): 9/32
- Odds Ratio (95% CI) [4, 11]: 2.8
- Sensitivity (%) ([4]; Sulfasalazine-SJS/TEN): 9.09%
- Specificity (%) ([4]; Sulfasalazine-SJS/TEN): 87.89%
- SCAR N (%) carrying the allele ([4]; Sulfasalazine-SJS/TEN patients): 1/11
- Odds Ratio (95% CI) [4, 13]: 0.7
- Sensitivity (%) ([5]; Sulfasalazine-DRESS): 38.10%
- Specificity (%) ([5]; Sulfasalazine-DRESS): 95.43%
- SCAR N (%) carrying the allele ([5]; Sulfasalazine-DRESS patients): 8/21
- SCAR N (%) carrying the allele [5, 15]: 8 of 21
- Odds Ratio (95% CI) [5, 10]: 12.2
- Odds Ratio (95% CI) [5, 16]: 12.2 (4.6-32.5)
- Sensitivity (%) ([5]; Sulfasalazine-SCAR): 28.13%
- Specificity (%) ([5]; Sulfasalazine-SCAR): 95.43%
- SCAR N (%) carrying the allele ([5]; Sulfasalazine-SCAR patients): 9/32
- Odds Ratio (95% CI) [5, 11]: 8.2
- Sensitivity (%) ([5]; Sulfasalazine-SJS/TEN): 0%
- Specificity (%) ([5]; Sulfasalazine-SJS/TEN): 95.43%
- SCAR N (%) carrying the allele ([5]; Sulfasalazine-SJS/TEN patients): 0/11
- Odds Ratio (95% CI) [5, 13]: 1.1
- Sensitivity (%) ([6]; Sulfasalazine-DRESS): 9.53%
- Specificity (%) ([6]; Sulfasalazine-DRESS): 90.75%
- SCAR N (%) carrying the allele ([6]; Sulfasalazine-DRESS patients): 2/21
- Odds Ratio (95% CI) [6, 10]: 1.0
- Sensitivity (%) ([6]; Sulfasalazine-SCAR): 21.88%
- Specificity (%) ([6]; Sulfasalazine-SCAR): 90.75%
- SCAR N (%) carrying the allele ([6]; Sulfasalazine-SCAR patients): 7/32
- Odds Ratio (95% CI) [6, 11]: 2.7
- Sensitivity (%) ([6]; Sulfasalazine-SJS/TEN): 45.45%
- Specificity (%) ([6]; Sulfasalazine-SJS/TEN): 90.75%
- SCAR N (%) carrying the allele ([6]; Sulfasalazine-SJS/TEN patients): 5/11
- SCAR N (%) carrying the allele [6, 12]: 5 out of 11
- Odds Ratio (95% CI) [6, 13]: 8.2
- Odds Ratio (95% CI) [6, 14]: 8.2 (2.4-27.4)
- patients developing obvious side effects [7]: Approximately 25%
- SCAR N (%) carrying the alleles [8]: 22/32
- Sensitivity (%) [8]: 68.75%
- Specificity (%) [8]: 78.32%
- Specificity (%) [9]: 83.74%

— patent US20220259655A1, “METHODS FOR ASSESSING THE RISK OF DEVELOPING SEVERE CUTANEOUS ADVERSE DRUG REACTIONS INDUCED BY DISEASE-MODIFYING ANTIRHEUMATIC DRUGS, DETECTION KIT THEREOF AND USES THEREOF” (CHANG GUNG MEMORIAL HOSPITAL, LINKOU, priority 2019, published 2022)
